In patent publication US12448369B2 (Edgewise Therapeutics, Inc., priority 2023, dated 2025):

How the values were obtained:
[1] = tested on: Rabbit Psoas myofibrils (skeletal myosin ATPase); test: Myofibril ATPase assay, rabbit psoas (skeletal) myofibrils; type: biochemical; conditions: rabbit psoas myofibrils
How it was run: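 Myofibrils homogenized in Triton X-100 buffer were assayed in pH 7.0 PIPES with defined Ca2+/EGTA. Myosin-driven ADP formation was coupled to NADH oxidation, with depletion monitored at 340 nm. Each value is the concentration that lowers activity to 75% of vehicle or, for activators, raises it to 125%.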

[2] = tested on: Porcine atria myofibrils (atrial myosin ATPase); test: Myofibril ATPase assay, porcine atria myofibrils; type: biochemical; conditions: porcine atria myofibrils
How it was run: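 Values are Y75 (concentration cutting ATPase activity to 75% of vehicle) or Y125 (raising it to 125%), taken from 4-parameter logistic fits. Rates come from NADH disappearance at 340 nm in a PK/LDH-coupled assay with porcine atria myofibrils.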

[3] = target: T1, Porcine ventricle myofibrils (ventricular myosin ATPase) (Sus scrofa, UniProt P79293); test: Myofibril ATPase assay, porcine ventricle myofibrils; type: biochemical, porcine (Yucatan minipigs); conditions: porcine ventricle myofibrils
T1 construct: Myofibrils from porcine cardiac muscle was isolated from the left ventricle of Yucatan minipigs; tissue Exemplar Genetics; host or cells: left ventricle of Yucatan minipigs, myofibrils prepared in house
T1 sequence (P79293 whole entry): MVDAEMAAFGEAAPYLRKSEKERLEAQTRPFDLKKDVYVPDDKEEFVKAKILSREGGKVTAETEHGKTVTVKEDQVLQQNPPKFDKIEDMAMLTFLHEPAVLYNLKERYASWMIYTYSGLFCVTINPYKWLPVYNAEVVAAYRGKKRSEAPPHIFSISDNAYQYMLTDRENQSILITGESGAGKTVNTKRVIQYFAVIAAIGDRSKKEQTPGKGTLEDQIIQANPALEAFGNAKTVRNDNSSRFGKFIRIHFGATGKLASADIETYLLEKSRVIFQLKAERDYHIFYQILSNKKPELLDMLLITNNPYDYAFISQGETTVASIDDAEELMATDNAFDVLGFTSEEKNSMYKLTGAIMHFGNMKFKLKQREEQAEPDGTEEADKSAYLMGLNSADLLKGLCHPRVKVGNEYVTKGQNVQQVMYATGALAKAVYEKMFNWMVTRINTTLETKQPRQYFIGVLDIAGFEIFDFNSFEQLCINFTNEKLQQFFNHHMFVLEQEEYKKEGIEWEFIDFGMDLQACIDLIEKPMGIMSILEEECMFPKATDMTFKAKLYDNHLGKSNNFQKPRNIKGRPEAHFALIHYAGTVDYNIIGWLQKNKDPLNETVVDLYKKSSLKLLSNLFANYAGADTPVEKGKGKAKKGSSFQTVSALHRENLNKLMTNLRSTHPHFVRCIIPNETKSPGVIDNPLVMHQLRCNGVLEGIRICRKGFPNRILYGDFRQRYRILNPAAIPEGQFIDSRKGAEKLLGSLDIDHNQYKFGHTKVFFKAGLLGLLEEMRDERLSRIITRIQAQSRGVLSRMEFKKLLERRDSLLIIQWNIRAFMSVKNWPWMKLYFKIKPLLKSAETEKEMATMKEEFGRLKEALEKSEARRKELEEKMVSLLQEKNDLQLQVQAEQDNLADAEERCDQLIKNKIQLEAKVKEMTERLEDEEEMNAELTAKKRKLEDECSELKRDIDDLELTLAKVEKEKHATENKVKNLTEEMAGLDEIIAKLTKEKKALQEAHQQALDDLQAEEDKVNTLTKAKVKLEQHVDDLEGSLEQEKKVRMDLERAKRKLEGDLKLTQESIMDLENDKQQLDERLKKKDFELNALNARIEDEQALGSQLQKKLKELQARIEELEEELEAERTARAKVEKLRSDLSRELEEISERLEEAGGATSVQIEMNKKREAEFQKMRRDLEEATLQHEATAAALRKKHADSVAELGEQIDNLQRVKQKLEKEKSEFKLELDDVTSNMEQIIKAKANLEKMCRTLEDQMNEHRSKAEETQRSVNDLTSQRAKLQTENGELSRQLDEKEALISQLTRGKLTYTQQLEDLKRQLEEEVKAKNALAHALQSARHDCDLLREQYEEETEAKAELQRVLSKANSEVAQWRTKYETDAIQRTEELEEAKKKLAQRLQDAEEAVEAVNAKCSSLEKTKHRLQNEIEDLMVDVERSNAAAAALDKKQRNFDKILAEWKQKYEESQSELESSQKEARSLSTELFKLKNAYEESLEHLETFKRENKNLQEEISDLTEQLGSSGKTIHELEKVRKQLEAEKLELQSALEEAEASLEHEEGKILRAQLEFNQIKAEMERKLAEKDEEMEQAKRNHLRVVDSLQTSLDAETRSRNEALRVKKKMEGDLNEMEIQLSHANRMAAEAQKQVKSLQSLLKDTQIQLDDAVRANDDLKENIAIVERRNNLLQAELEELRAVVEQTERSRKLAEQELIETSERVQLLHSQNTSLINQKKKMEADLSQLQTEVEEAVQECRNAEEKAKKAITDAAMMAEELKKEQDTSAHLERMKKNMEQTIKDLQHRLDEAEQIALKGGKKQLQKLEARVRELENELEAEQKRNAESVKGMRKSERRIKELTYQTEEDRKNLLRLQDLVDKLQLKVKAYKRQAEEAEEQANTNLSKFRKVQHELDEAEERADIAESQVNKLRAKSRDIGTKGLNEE
How it was run: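 ATPase activity of porcine left-ventricle myofibrils (Yucatan minipig) was followed through PK-LDH coupling as NADH loss at 340 nm, read every 1.5-2 min for 75 min. Slopes were normalised to vehicle wells and fitted to a 4-parameter logistic model. Values are Y75, the concentration giving a 25% drop in activity, or Y125 for activators.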

[4] = Y75 value (75% activity relative to no compound)

Compound	Skeletal EC25 ([1]; Y75 value (no ‡ mark)) [nM]	Atrial EC25 ([2]; Y75 value (no ‡ mark)) [nM]	Ventricular EC25 ([3]; Y75 value (no ‡ mark)) [nM]	Skeletal EC25 ([1]; Y75 value) [nM]	Atrial EC25 [2, 4] [nM]	Ventricular EC25 ([3]; Y75 value) [nM]
Cc1c(C2(C(=O)N[C@H](C)c3cccc(C#N)n3)CC2)c(=O)[nH]c2ccc(F)cc12 (single isomer, unassigned) [compound 2579]	100000	100000	100000	–	–	–
Cc1cc([C@H](C)NC(=O)Cc2c(C)c3cc(F)ccc3[nH]c2=O)ncc1F [compound 1061]	100000	2490	100000	–	–	–
Cc1cc(F)cc(F)c1[C@@H](C)NC(=O)Cc1c(C)c2c(C)nccc2[nH]c1=O (single isomer, unassigned) [compound 404]	–	–	–	350	100000	42840
Cc1c(CC(=O)N[C@@H](C)c2ccc(F)cc2F)c(=O)[nH]c2ccnc(Cl)c12 [compound 402]	–	–	–	20	40	190
Cc1c(C2(C(=O)N[C@@H](C)c3ncc(C#N)cc3F)CC2)c(=O)[nH]c2ccc(F)c(C(F)(F)F)c12 (single isomer, unassigned) [compound 4802]	140	200	1000	–	–	–
Cc1nccc2[nH]c(=O)c(CC(=O)N[C@@H](C)c3ccc(F)cc3F)c(F)c12 [compound 150]	–	–	–	90	60	680
C[C@H](NC(=O)Cc1cc2c(F)c(F)ccc2[nH]c1=O)c1ncc(F)cc1F [compound 34]	20	20	50	–	–	–
Cc1ccccc1[C@H](CO)NC(=O)Cc1c(C)c2c(C)nccc2[nH]c1=O (single isomer, unassigned) [compound 338]	–	–	–	27390	8690	100000
Cc1nc(C#N)cnc1[C@@H](C)NC(=O)Cc1c(C)c2nc(C(F)(F)F)ccc2[nH]c1=O (single isomer, unassigned) [compound 138]	–	–	–	2850	350	1170
Cc1nccc2[nH]c(=O)c(CC(=O)N[C@@H](C)c3ccc(C#N)cc3F)c(F)c12 [compound 149]	–	–	–	20	60	100
Cc1c(CC(=O)N[C@H](C)c2cnc(C#N)nc2)c(=O)[nH]c2cc(F)c(F)cc12 (single isomer, unassigned) [compound 2074]	4030	9010	10130	–	–	–
Cc1c(C2(C(=O)N[C@@H]3CCc4cc(C#N)cnc43)CC2)c(=O)[nH]c2ccc(F)c(F)c12 (single isomer, unassigned) [compound 4803]	270	100000	100000	–	–	–
C[C@@H](NC(=O)C(F)(F)c1cc2c(F)c(F)ccc2[nH]c1=O)c1ncc(C#N)cn1 (single isomer, unassigned) [compound 2545]	130	7980	1220	–	–	–
C[C@@H](NC(=O)Cc1cc2cc(F)c(F)cc2[nH]c1=O)c1ncc(C#N)cn1 (single isomer, unassigned) [compound 2035]	5700	2190	38210	–	–	–
C[C@H](NC(=O)Cc1c(Cl)c2cnccc2[nH]c1=O)c1ccc(C#N)cn1 [compound 454]	–	–	–	4250	7210	52300
CCOc1nccc2[nH]c(=O)c(CC(=O)N[C@@H](C)c3ccc(F)cc3F)c(C)c12 [compound 381]	–	–	–	10	100	310
Cc1c(CC(=O)N[C@H](C)c2ncc(C#N)cn2)c(=O)[nH]c2ccc(F)c(C#N)c12 (single isomer, unassigned) [compound 2015]	150	490	1450	–	–	–
Cc1c(CC(=O)N[C@H](CO)c2ccc(F)cc2F)c(=O)[nH]c2ccc(C#N)nc12 [compound 210]	–	–	–	7040	30200	100000
Cc1nc(C#N)ccc1[C@H](C)NC(=O)Cc1c(C)c2c(C)c(F)ccc2[nH]c1=O (single isomer, unassigned) [compound 2079]	30	130	70	–	–	–
N#Cc1cnc2c(c1)CC[C@H]2NC(=O)Cc1cc2c(F)c(F)ccc2[nH]c1=O (single isomer, unassigned) [compound 7]	810	3800	1270	–	–	–
